What was measured:
[1] = system: B16 melanoma 4A5 cell; test: Melanogenesis inhibiting test (theophylline-induced melanine production); assay type: cell-based; settings: B16 mouse melanoma 4A5, theophylline 1.0 mmol/L, 3 days culture, N=4; for IC40: B16 melanoma 4A5, 72 h, read-out: Judgment: sample concentration showing the melanogenesis inhibiting ratio of 40% or more
Description: As a test for a skin-lightening effect, evaluation of the action of B16 melanoma 4A5 cell on theophylline-induced melanine production was carried out on propyl-phenyl-ether derivatives of the present invention, according to the following procedure. (1) B16 mouse melanoma 4A5 strain was sowed onto a 48-well plate at a cell density of 8.0×10^3 cells/well. (2) Culturing was performed for 24 hours with Dulbecco's Modified Eagle's medium (manufactured by SIGMA. Hereinafter, abbreviated as D-MEM) containing 10% fetal bovine serum (manufactured by Nichirei Biosciences Inc.). […] (3) After culturing for 3 days in the co-existence of a sample, the medium was removed using an aspirator. Then, after distilled water was added, cells were broken by an ultrasonic wave. (4) Thereafter, the amount of protein was determined using BCA protein assay kit (manufactured by Thermo Fisher Scientific Inc.), and the produced amount of melanine was measured by an alkali solubilizing method described below. [Alkali Solubilizing Method] To the cell-destructed solution was added sodium hydroxide so as to give a final concentration of 1 mol/L and the mixture was dissolved by heating (60° C., 30 minutes), then, the absorbance at 450 nm was measured using a micro plate reader. The melanine amount was calculated from a calibration curve made using synthetic melanine (SIGMA) as a standard. The melanine amount per unit protein was calculated by dividing the melanine amount by the protein amount. (5) The melanine production suppressing rate was calculated according to the following formula. Melanine production suppressing rate (%)=[1−(A−B)/(C−B)]×100 [wherein, A represents the melanine amount per unit protein (g/g) in adding a sample, B represents the melanine amount per unit protein (g/g) in the normal group, and C represents the melanine amount per unit protein (g/g) in the control group.] In the above, Normal group is a case of theophylline (−; no addition) and sample (−; no addition), and Control group is a case of theophylline (+; addition) and sample (−; no addition). (6) Determination of Skin-Lightening Effect The amount of a sample required for adjusting the melanogenesis inhibiting ratio to 40% or more was measured, and the effect was evaluated by the following criteria based on the measured amount. The measurement was conducted at N=4 (4 wells per sample). The skin-lightening effect is expressed as described below based on the sample concentration showing the melanogenesis inhibiting ratio of 40% or more. The measurement was conducted at N=4.

[2] = system: Propionibacterium acnes (JCM6415); test: Anti-acne test (growth in GAM bouillon medium, OD620); assay type: cell-based; settings: sample final concentration 0.1%, 37° C., anaerobic, 48 hours
Description: Propionibacterium acnes (JCM6415: ATCC strain) was transplanted to GAM bouillon medium (manufactured by Nissui Pharmaceutical Co., Ltd.), and cultured at 37° C. under anaerobic condition for 24 hours. Thereafter, it was diluted with GAM bouillon medium so that the final bacterium concentration was OD620=0.1, and this was used as a test bacterium solution. In examples, the propyl-phenyl-ether derivative was weighed so that the final concentration was 0.1%, dissolved in GAM bouillon medium, then, filter-sterilization was performed. The resultant solution was used as a sample solution. The test bacterium solution was added in an amount of 30 μL and the sample solution was added in an amount of 120 μL to a 96-well microplate (manufactured by Sumitomo Bakelite Co., Ltd.), then, immediately, the micro plate and AnaeroPack-KENKI (manufactured by Mitsubishi Gas Chemical Co., Inc.) were placed into an anaerobic jar (manufactured by Mitsubishi Gas Chemical Co., Inc.), and culture was carried out at 37° C. under anaerobic condition for 48 hours. Thereafter, OD620 was measured by a microplate reader. The same test was conducted using methylparaben, phenoxyethanol and sodium ascorbate as comparative compounds.
The results are classified by the following criteria and shown in Table 5-Table 7. • Δ: OD620 is 0.6 or more • ◯: OD620 is 0.3-0.6 • ⊚: OD620 is 0.3 or less

| Compound | IC40 [1] | Judgment: OD620 after culture [2] | Judgment: sample concentration showing the melanogenesis inhibiting ratio of 40% or more [1] |
| --- | --- | --- | --- |
| CCOC(CO)COc1ccc(C(C)(C)C)cc1 (stereo not drawn) [2-O-ethyl-1-hydroxy-3-(4′-tert-butylphenoxy)propyl] | ≤ 30 µM | ⊚⊚ | – |
| CC(O)COc1ccc(C(C)(C)C)cc1 (stereo not drawn) [Example 2, 2-hydroxy-3-(4′-tert-butylphenoxy)propyl] | 30 to 100 µM | ⊚ (⊚: OD620 is 0.3 or less) | – |
| CCOCC(O)COc1ccc(C(C)CC)cc1 (stereo not drawn) [Example 4, 1-O-ethyl-2-hydroxy-3-(4′-sec-butylphenoxy)propyl] | – | ⊚ (⊚: OD620 is 0.3 or less) | ⊚ (30 to 100 μmol/L: ⊚) |
| CC(C)(C)c1ccc(OCC(O)COc2ccc(C(C)(C)C)cc2)cc1 [Example 8, 2-hydroxy-1,3-di-(4′-tert-butylphenoxy)propyl] | ≤ 30 µM | ⊚⊚ | – |
| CC(C)(C)c1ccc(OCC(O)COc2ccc(O)cc2)cc1 (stereo not drawn) [Example 9, 1-(4″-hydroxyphenoxy)-2-hydroxy-3-(4′-tert-butylphenoxy)propyl] | 30 to 100 µM | ⊚ (⊚: OD620 is 0.3 or less) | – |
| CC(C)(C)c1ccc(OCC(O)COCC(O)COc2ccc(C(C)(C)C)cc2)cc1 (stereo not drawn) [Example 10, di[2-hydroxy-3-(4′-tert-butylphenoxy)propyl]ether] | 100 to 300 µM | ⊚ (⊚: OD620 is 0.3 or less) | – |
| CCCCc1ccc(OCC(O)CO)cc1 (stereo not drawn) [Example 12, 1,2-di-hydroxy-3-(4′-n-butylphenoxy)propyl] | 30 to 100 µM | ◯ (◯: OD620 is 0.3-0.6) | – |
| CC(C)c1ccc(OCC(O)CO)cc1 (stereo not drawn) [Example 13, 1,2-di-hydroxy-3-(4′-isopropylphenoxy)propyl] | 30 to 100 µM | ⊚ (⊚: OD620 is 0.3 or less) | – |
| CCc1ccc(OCC(O)CO)cc1 (stereo not drawn) [Example 14, 1,2-di-hydroxy-3-(4′-ethylphenoxy)propyl] | 100 to 300 µM | ⊚ (⊚: OD620 is 0.3 or less) | – |
| CCC(C)(C)c1ccc(OCC(O)CO)cc1 (stereo not drawn) [Example 15, 1,2-di-hydroxy-3-(4′-tert-amylphenoxy)propyl] | ≤ 30 µM | ⊚⊚ | – |
| CC(C)(c1ccccc1)c1ccc(OCC(O)CO)cc1 (stereo not drawn) [Example 16, 1,2-di-hydroxy-3-(4′-α-cumylphenoxy)propyl] | 30 to 100 µM | ⊚ (⊚: OD620 is 0.3 or less) | – |
| CC(C)(C)CC(C)(C)c1ccc(OCC(O)CO)cc1 (stereo not drawn) [Example 17, 1,2-di-hydroxy-3-[4′-(1″,1″,3″,3″-tetramethylbutyl)phenoxy]propyl] | ≤ 30 µM | ⊚⊚ | – |
| CC(C)(C)c1ccc(OCCCO)cc1 [Example 18, 1-hydroxy-3-(4′-tert-butylphenoxy)propyl] | 30 to 100 µM | ⊚ (⊚: OD620 is 0.3 or less) | – |
| CCC(C)c1cccc(C(C)CC)c1OCC(O)CO (stereo not drawn) [Example 19, 1,2-di-hydroxy-3-(2′,6′-di-sec-butylphenoxy)propyl] | ≤ 30 µM | ⊚⊚ | – |
| CC(C)(C)c1ccc(OCC(O)CO)c(C(C)(C)C)c1 (stereo not drawn) [Example 20, 1,2-di-hydroxy-3-(2′,4′-di-tert-butylphenoxy)propyl] | ≤ 30 µM | ⊚⊚ | – |
| Cc1cc(OCC(O)CO)c(C(C)(C)C)cc1C(C)(C)C (stereo not drawn) [Example 21, 1,2-di-hydroxy-3-(2′,4′-di-tert-butyl-5′-methylphenoxy)propyl] | ≤ 30 µM | ⊚⊚ | – |
| Cc1cc(C(C)(C)C)c(OCC(O)CO)c(C(C)(C)C)c1 (stereo not drawn) [Example 22, 1,2-di-hydroxy-3-(2′,6′-di-tert-butyl-4′-methylphenoxy) propyl] | ≤ 30 µM | ⊚⊚ | – |

| Compound | IC40 [1] | Judgment: OD620 after culture [2] | Judgment: sample concentration showing the melanogenesis inhibiting ratio of 40% or more [1] |
| --- | --- | --- | --- |
| COc1ccc(OCC(O)CO)c(C(C)(C)C)c1 (stereo not drawn) [Example 23, 1,2-di-hydroxy-3-(2′-tert-butyl-4′-methoxylphenoxy)propyl] | 30 to 100 µM | ⊚ (⊚: OD620 is 0.3 or less) | – |
| COc1ccc(OCC(O)CO)cc1C(C)(C)C (stereo not drawn) [Example 24, 1,2-di-hydroxy-3-(3′-tert-butyl-4′-methoxylphenoxy)propyl] | 30 to 100 µM | ⊚ (⊚: OD620 is 0.3 or less) | – |
| CC(C)(c1ccc(OCC(O)CO)cc1)c1ccc(OCC(O)CO)cc1 (stereo not drawn) [Example 25] | ≤ 30 µM | ⊚⊚ | – |
| CCCCC(CC)COCC(O)COc1ccccc1C(C)CC (stereo not drawn) [Example 26, 1-O-(2″-ethylhexyl)-2-hydroxy-3-(2′-sec-butylphenoxy) propyl] | 30 to 100 µM | ⊚ (⊚: OD620 is 0.3 or less) | – |
| CCOCC(O)COc1ccccc1C(C)CC (stereo not drawn) [Example 27, 1-O-ethyl-2-hydroxy-3-(2′-sec-butylphenoxy)propyl] | 30 to 100 µM | ⊚ (⊚: OD620 is 0.3 or less) | – |
| CCOCC(O)COc1ccc(C(C)(C)c2ccccc2)cc1 (stereo not drawn) [Example 28, 1-O-ethyl-2-hydroxy-3-(4′-α-cumylphenoxy)propyl] | ≤ 30 µM | ⊚⊚ | – |
| CCOCC(O)COc1ccc(C(C)C)c(C)c1 (stereo not drawn) [Example 29, 1-O-ethyl-2-hydroxy-3-(3′-methyl-4′-isoproylphenoxy)propyl] | ≤ 30 µM | ⊚⊚ | – |
| CCOCC(O)COc1c(C(C)CC)cccc1C(C)CC (stereo not drawn) [Example 30, 1-O-ethyl-2-hydroxy-3-(2′,6′-di-sec-butylphenoxy)propyl] | ≤ 30 µM | ⊚⊚ | – |
| Cc1cc(OCC(O)CO)ccc1C(C)C (stereo not drawn) [Example 31, 1,2-di-hydroxy-3-(3′-methyl-4′-isoproylphenoxy)propyl] | ≤ 30 µM | ⊚⊚ | – |
| CCOCC(O)COc1ccc(C(C)(C)c2ccc(OCC(O)COCC)cc2)cc1 (stereo not drawn) [Example 32, 2,2-bis[4′-(1″-O-ethyl-2″-hydroxypropoxy)phenyl]propane] | ≤ 30 µM | ⊚⊚ | – |
| CCOCC(O)COc1ccc(C(C)(C)CC(C)(C)C)cc1 (stereo not drawn) [Example 33, 1-O-ethyl-2-hydroxy-3-[4′-(1″,1″,3″,3″-tetramethylbutyl)phenoxy]propyl] | 30 to 100 µM | ⊚ (⊚: OD620 is 0.3 or less) | – |
| COC(=O)c1ccc(O)cc1 [Methylparaben, reference compound] | – | Δ (Δ: OD620 is 0.6 or more) | – |
| O=C1O[C@H]([C@@H](O)CO)C([O-])=C1O.[Na+] [Sodium Ascorbate, reference compound] | – | Δ (Δ: OD620 is 0.6 or more) | – |
| CCCOc1ccc(C(C)(C)C)cc1 [Synthesis Example 1, 1-(4′-tert-butylphenoxy)propyl, reference compound] | ≥ 300 µM | Δ (Δ: OD620 is 0.6 or more) | – |
| CCOc1ccc(C(C)(C)C)cc1 [Synthesis Example 2, 1-(4′-tert-butylphenoxy)ethyl, reference compound] | ≥ 300 µM | Δ (Δ: OD620 is 0.6 or more) | – |
| OCC(O)COc1ccccc1 (stereo not drawn) [Synthesis Example 3, 1,2-di-hydroxy-3-phenoxypropyl, reference compound] | ≥ 300 µM | Δ (Δ: OD620 is 0.6 or more) | – |
| Cc1ccccc1OCC(O)CO (stereo not drawn) [Synthesis Example 4, 1,2-di-hydroxy-3-(2′-methylphenoxy)propyl, reference compound] | ≥ 300 µM | Δ (Δ: OD620 is 0.6 or more) | – |
